Active and inactive are the calls of the source. The rule behind the calls is not given here.
Experiments:
[1] = biological target: T1, Amyloid-beta precursor protein (Homo sapiens, UniProt P05067); assay: Inhibition of amyloid beta (1 to 42) (unknown origin) aggregation after 24 hrs by thioflavin T fluorescence assay
[2] = biological target: T1, Amyloid-beta precursor protein; assay: Inhibition of amyloid beta (1 to 42) (unknown origin) fibril formation at 100 uM after 24 hrs by silicotungstic acid staining based transmission electron microscopic analysis
[3] = biological target: T1, Amyloid-beta precursor protein; assay: Inhibition of amyloid beta (1 to 42) (unknown origin) fibril formation after 24 hrs by silicotungstic acid staining based transmission electron microscopic analysis

T1 sequence (P05067 whole entry): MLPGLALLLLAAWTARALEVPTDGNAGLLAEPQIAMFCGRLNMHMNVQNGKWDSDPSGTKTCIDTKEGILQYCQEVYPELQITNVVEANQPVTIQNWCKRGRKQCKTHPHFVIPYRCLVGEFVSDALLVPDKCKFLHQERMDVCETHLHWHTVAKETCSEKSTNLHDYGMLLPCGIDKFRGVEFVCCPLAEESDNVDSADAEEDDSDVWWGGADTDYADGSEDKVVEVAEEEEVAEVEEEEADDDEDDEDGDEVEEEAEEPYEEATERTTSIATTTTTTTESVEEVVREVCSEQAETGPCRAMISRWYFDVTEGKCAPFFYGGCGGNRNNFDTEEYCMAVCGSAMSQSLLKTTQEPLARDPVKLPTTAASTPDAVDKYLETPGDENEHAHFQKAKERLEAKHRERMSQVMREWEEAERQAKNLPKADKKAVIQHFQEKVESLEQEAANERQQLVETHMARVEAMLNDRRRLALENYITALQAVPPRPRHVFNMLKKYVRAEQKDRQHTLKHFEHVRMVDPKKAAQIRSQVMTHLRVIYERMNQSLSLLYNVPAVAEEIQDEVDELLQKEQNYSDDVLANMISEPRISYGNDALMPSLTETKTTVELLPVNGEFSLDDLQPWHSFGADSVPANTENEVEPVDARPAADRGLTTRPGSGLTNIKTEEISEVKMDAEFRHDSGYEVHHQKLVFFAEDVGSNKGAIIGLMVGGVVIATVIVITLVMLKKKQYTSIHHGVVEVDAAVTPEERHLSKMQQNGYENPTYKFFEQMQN

Row | SMILES | IC50 [1] [µM] | inhibition [2] | inhibition [3] | inhibition [1]
1 | COC(=O)[C@H](Cc1ccc(O)c(O)c1)NC(=O)/C=C/c1ccc(O)c(O)c1 [N-CAFFEOYL-DOPA METHYL ESTER] | 4.9 |  | Dose-dependent effect | Dose-dependent effect
2 | O=C(CCc1ccc(O)c(O)c1)N[C@@H](Cc1ccc(O)c(O)c1)C(=O)O | 8.7 |  | Dose-dependent effect | Dose-dependent effect
3 | O=C(/C=C/c1ccc(O)c(O)c1)N[C@@H](Cc1ccc(O)c(O)c1)C(=O)O | 5.7 |  | Dose-dependent effect | Dose-dependent effect
4 | O=C(/C=C/c1ccccc1)N[C@@H](Cc1ccccc1)C(=O)O | > 100 | inactive |  | 
5 | O=C(/C=C/c1ccccc1)N[C@@H](Cc1ccc(O)c(O)c1)C(=O)O | 22.7 |  | Dose-dependent effect | Dose-dependent effect
6 | O=C(/C=C/c1ccc(O)cc1)N[C@@H](Cc1ccc(O)c(O)c1)C(=O)O | > 100 | inactive |  | 
7 | O=C(/C=C/c1ccccc1)N[C@@H](Cc1ccc(O)cc1)C(=O)O | > 100 | inactive |  | 

Results, then the molecule that gave them:

Row | IC50 [1] [µM] | inhibition [2] | inhibition [3] | inhibition [1] | SMILES
8 | > 100 | inactive |  |  | COC(=O)[C@H](Cc1ccc(OC)c(OC)c1)NC(=O)/C=C/c1ccc(OC)c(OC)c1
9 | 72.9 |  | Dose-dependent effect | Dose-dependent effect | O=C(/C=C/c1ccc(O)c(O)c1)N[C@@H](Cc1ccccc1)C(=O)O
10 | > 100 | inactive |  |  | O=C(/C=C/c1ccc(O)cc1)N[C@@H](Cc1ccc(O)cc1)C(=O)O
11 | > 100 | inactive |  |  | O=C(/C=C/c1ccc(O)cc1)N[C@@H](Cc1ccccc1)C(=O)O
12 | 87.8 |  | Dose-dependent effect | Dose-dependent effect | O=C(/C=C/c1ccc(O)c(O)c1)N[C@@H](Cc1ccc(O)cc1)C(=O)O
13 | 1.6 |  | Dose-dependent effect | Dose-dependent effect | O=C(/C=C/c1ccc(O)c(O)c1)N[C@H](Cc1ccc(O)c(O)c1)C(=O)O

— ChEMBL document CHEMBL4118147, “Structure-activity relationship of clovamide and its related compounds for the inhibition of amyloid β aggregation” (Bioorg Med Chem, 2018)
